Experimental data: patent publication US9212182B2, “Bicyclic sulfonamide compounds as sodium channel inhibitors” (AMGEN INC., priority 2013, dated 2015)

target: Nav 1.7 (Homo sapiens (Human), UniProt Q15858); test: in-vitro Nav 1.7 PX (IC50); assay type: cell-based; conditions: not given
Sequence (Q15858 whole entry): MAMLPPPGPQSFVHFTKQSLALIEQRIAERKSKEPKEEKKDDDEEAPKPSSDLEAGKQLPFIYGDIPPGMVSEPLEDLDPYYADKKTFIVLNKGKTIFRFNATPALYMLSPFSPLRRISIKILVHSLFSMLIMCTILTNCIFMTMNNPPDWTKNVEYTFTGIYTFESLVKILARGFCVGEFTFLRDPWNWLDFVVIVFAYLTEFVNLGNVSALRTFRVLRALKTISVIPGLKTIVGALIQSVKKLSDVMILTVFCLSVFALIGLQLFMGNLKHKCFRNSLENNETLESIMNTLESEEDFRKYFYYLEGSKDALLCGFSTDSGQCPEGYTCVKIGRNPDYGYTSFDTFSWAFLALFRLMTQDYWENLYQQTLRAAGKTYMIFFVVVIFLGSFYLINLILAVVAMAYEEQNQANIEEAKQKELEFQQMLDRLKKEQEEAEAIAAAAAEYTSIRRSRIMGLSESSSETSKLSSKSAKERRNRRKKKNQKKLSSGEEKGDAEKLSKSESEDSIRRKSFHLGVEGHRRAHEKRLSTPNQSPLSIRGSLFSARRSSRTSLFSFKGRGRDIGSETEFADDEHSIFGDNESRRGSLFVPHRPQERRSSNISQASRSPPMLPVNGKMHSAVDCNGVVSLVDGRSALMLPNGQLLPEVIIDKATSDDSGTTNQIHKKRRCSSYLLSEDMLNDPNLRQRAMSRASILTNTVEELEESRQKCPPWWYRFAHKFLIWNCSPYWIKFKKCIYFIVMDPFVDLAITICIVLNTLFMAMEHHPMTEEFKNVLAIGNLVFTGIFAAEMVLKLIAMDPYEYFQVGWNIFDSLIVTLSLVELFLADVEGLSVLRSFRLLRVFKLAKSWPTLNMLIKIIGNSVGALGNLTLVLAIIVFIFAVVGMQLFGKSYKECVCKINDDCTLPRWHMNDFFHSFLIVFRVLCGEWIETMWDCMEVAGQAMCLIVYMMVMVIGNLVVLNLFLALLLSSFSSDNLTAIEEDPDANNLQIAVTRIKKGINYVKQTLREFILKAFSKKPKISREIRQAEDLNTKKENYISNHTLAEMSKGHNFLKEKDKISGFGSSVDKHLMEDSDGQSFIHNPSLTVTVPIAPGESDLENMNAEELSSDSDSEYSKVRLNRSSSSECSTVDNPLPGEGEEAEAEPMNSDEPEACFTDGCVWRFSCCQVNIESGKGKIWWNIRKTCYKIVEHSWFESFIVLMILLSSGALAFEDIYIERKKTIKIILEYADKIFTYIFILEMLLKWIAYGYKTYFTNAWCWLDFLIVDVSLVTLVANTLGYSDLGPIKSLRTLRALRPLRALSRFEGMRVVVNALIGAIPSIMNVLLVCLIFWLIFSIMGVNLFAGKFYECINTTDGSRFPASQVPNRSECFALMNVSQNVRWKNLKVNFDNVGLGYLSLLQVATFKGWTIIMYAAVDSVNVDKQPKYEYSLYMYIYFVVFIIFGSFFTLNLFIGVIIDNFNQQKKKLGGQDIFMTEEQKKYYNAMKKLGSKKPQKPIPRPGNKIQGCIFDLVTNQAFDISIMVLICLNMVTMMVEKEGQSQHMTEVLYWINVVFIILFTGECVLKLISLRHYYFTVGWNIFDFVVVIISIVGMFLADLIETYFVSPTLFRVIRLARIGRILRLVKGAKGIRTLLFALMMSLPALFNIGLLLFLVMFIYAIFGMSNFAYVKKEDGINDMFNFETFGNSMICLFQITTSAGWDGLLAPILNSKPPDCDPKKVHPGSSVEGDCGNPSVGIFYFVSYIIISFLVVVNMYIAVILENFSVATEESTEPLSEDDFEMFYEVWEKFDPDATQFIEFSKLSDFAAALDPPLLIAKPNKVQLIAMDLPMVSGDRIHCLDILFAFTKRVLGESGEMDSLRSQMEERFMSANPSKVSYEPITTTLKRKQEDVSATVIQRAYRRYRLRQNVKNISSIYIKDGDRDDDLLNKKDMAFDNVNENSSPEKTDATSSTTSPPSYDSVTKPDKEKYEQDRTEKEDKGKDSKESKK

IC50 [nM]	Structure (SMILES)
8	COc1cc(-c2cc(C)cc(Cl)c2)ccc1-n1c(=O)ccc2cc(S(=O)(=O)Nc3ccon3)ccc21 (atropisomer, axis not shown; (P)) [Example 585, (P)-1-(3′-chloro-3-methoxy-5′-methyl-4-biphenylyl)-N-3-isoxazolyl-2-oxo-1,2-dihydro-6-quinolinesulfonamide]
2940	COc1nc(NC[C@H]2CCC(C)(C)O2)c(Cl)cc1-n1c(=O)ccc2cc(S(=O)(=O)Nc3ccon3)ccc21 [Example 1232, 1-(5-chloro-6-((((2R)-5,5-dimethyltetrahydro-2-furanyl)methyl)amino)-2-methoxy-3-pyridinyl)-N-3-isoxazolyl-2-oxo-1,2-dihydro-6-quinolinesulfonamide, 1-(5-chloro-6-((((2S)-5,5-dimethyltetrahydro-2-furanyl)methyl)amino)-2-methoxy-3-pyridinyl)-N-3-isoxazolyl-2-oxo-1,2-dihydro-6-quinolinesulfonamide]
124	COc1nc(C#CC2CCCC2)c(Cl)cc1-n1c(=O)ccc2cc(S(=O)(=O)Nc3cccnn3)ccc21 (atropisomer, axis not shown; (P)) [Example 1240, (P)-1-(5-chloro-6-(cyclopentylethynyl)-2-methoxy-3-pyridinyl)-2-oxo-N-3-pyridazinyl-1,2-dihydro-6-quinolinesulfonamide]
10100	COc1ccccc1-n1c(=O)ccc2cc(S(=O)(=O)Nc3ccon3)ccc21 [Example 1154, N-(isoxazol-3-yl)-1-(2-methoxyphenyl)-2-oxo-1,2-dihydroquinoline-6-sulfonamide]

Structure (SMILES)	IC50 [nM]
COc1cc(-c2cccc(F)c2)c(Cl)cc1-n1c(=O)cc(C)c2cc(S(=O)(=O)Nc3ccon3)ccc21 [Example 349, M-1-(2-chloro-3′-fluoro-5-methoxy-[1,1′-biphenyl]-4-yl)-N-(isoxazol-3-yl)-4-methyl-2-oxo-1,2-dihydroquinoline-6-sulfonamide]	10600
COc1cc(-c2ccc(Cl)c(C)c2)c(Cl)cc1-n1c(=O)ccc2cc(S(=O)(=O)Nc3ccon3)ccc21 (atropisomer, axis not shown; (P)) [Example 471, (P)-1-(2,4′-dichloro-5-methoxy-3′-methyl-[1,1′-biphenyl]-4-yl)-N-(isoxazol-3-yl)-2-oxo-1,2-dihydroquinoline-6-sulfonamide]	8

same assay, conditions: in-vitro Nav 1.7 PX data

Structure (SMILES)	IC50 [nM]
COc1ccc(-c2cc(OC)c(-n3c(=O)ccc4cc(S(=O)(=O)Nc5ccon5)ccc43)cc2F)cc1 [Example 954, 1-(2-fluoro-4′,5-dimethoxy-4-biphenylyl)-N-3-isoxazolyl-2-oxo-1,2-dihydro-6-quinolinesulfonamide]	71
COc1ccc(-c2cc(OC)c(-n3c(=O)ccc4cc(S(=O)(=O)Nc5ccon5)ccc43)cc2F)c(Cl)c1 [Example 699, 1-(2′-chloro-2-fluoro-4′,5-dimethoxy-4-biphenylyl)-N-3-isoxazolyl-2-oxo-1,2-dihydro-6-quinolinesulfonamide]	37
COc1cc(-c2cc(F)cc(Cl)c2)c(F)cc1-n1c(=O)ccc2cc(S(=O)(=O)Nc3ccc(F)cn3)ccc21 [Example 920, 1-(3′-chloro-2,5′-difluoro-5-methoxy-4-biphenylyl)-N-(5-fluoro-2-pyridinyl)-2-oxo-1,2-dihydro-6-quinolinesulfonamide]	60
COc1cc(-c2cc(Cl)cnc2OC)c(F)cc1-n1c(=O)ccc2cc(S(=O)(=O)Nc3cc(C)ncn3)ccc21 [Example 777, 1-(4-(5-chloro-2-methoxy-3-pyridinyl)-5-fluoro-2-methoxyphenyl)-N-(6-methyl-4-pyrimidinyl)-2-oxo-1,2-dihydro-6-quinolinesulfonamide]	103
COc1nc(C2CC2)c(Cl)cc1-n1c(=O)ccc2cc(S(=O)(=O)Nc3ccon3)ccc21 [640/830, 1-(5-chloro-6-cyclopropyl-2-methoxy-3-pyridinyl)-N-3-isoxazolyl-2-oxo-1,2-dihydro-6-quinolinesulfonamide]	38
CCOc1cccc(-c2cc(OC)c(-n3c(=O)ccc4cc(S(=O)(=O)Nc5ccon5)ccc43)cc2F)c1 [Example 727, 1-(3′-ethoxy-2-fluoro-5-methoxy-4-biphenylyl)-N-3-isoxazolyl-2-oxo-1,2-dihydro-6-quinolinesulfonamide]	25
COc1nc(-c2ccc(Cl)c(C)c2)c(Cl)cc1-n1c(=O)ccc2cc(S(=O)(=O)Nc3ccon3)ccc21 [Example 1085, 1-(5-chloro-6-(4-chloro-3-methylphenyl)-2-methoxy-3-pyridinyl)-N-3-isoxazolyl-2-oxo-1,2-dihydro-6-quinolinesulfonamide]	3440
COc1cc(Cl)c(-c2cccc(F)c2)cc1-n1c(=O)ccc2cc(S(=O)(=O)Nc3ccon3)ccc21 (atropisomer, axis not shown; (M)) [Example 609, (M)-1-(6-chloro-3′-fluoro-4-methoxy-3-biphenylyl)-N-3-isoxazolyl-2-oxo-1,2-dihydro-6-quinolinesulfonamide]	10100
COc1cc(-c2cc(F)cc(Cl)c2)c(F)cc1-n1c(=O)ccc2cc(S(=O)(=O)Nc3cc(C)ncn3)ccc21 [Example 933, 1-(3′-chloro-2,5′-difluoro-5-methoxy-4-biphenylyl)-N-(6-methyl-4-pyrimidinyl)-2-oxo-1,2-dihydro-6-quinolinesulfonamide]	8
COc1cc(F)cc(-c2ccc(-n3c(=O)ccc4cc(S(=O)(=O)Nc5ccon5)ccc43)c(OC)c2)c1 [Example 1018, 1-(3′-fluoro-3,5′-dimethoxy-4-biphenylyl)-N-3-isoxazolyl-2-oxo-1,2-dihydro-6-quinolinesulfonamide]	13
COc1cc(F)cc(-c2ccc(OC)c(-n3c(=O)ccc4cc(S(=O)(=O)Nc5ccon5)ccc43)c2)c1 [Example 853, 1-(3′-fluoro-4,5′-dimethoxy-3-biphenylyl)-N-3-isoxazolyl-2-oxo-1,2-dihydro-6-quinolinesulfonamide]	60
COc1cc(-c2ccccn2)c(F)cc1-n1c(=O)ccc2cc(S(=O)(=O)Nc3ccon3)ccc21 [Example 594, 1-(5-fluoro-2-methoxy-4-(2-pyridinyl)phenyl)-N-3-isoxazolyl-2-oxo-1,2-dihydro-6-quinolinesulfonamide]	1660
COc1cc(CC2CCCCC2)c(F)cc1-n1c(=O)ccc2cc(S(=O)(=O)Nc3ncco3)ccc21 [Example 1110, 1-(4-(cyclohexylmethyl)-5-fluoro-2-methoxyphenyl)-N-1,3-oxazol-2-yl-2-oxo-1,2-dihydro-6-quinolinesulfonamide]	52

Continued, values first:

IC50 [nM]	Structure (SMILES)
44	COc1cc(-c2cccc(C)c2)ccc1-n1c(=O)ccc2cc(S(=O)(=O)Nc3ncco3)ccc21 [Example 1113, 1-(3-methoxy-3′-methyl-4-biphenylyl)-N-1,3-oxazol-2-yl-2-oxo-1,2-dihydro-6-quinolinesulfonamide]
219	COc1cc(F)cc(-c2ccc(-n3c(=O)ccc4cc(S(=O)(=O)Nc5cc(C)ncn5)ccc43)c(OC)c2)c1 [Example 1004, 1-(3′-fluoro-3,5′-dimethoxy-4-biphenylyl)-N-(6-methyl-4-pyrimidinyl)-2-oxo-1,2-dihydro-6-quinolinesulfonamide]
67	COc1cc(-c2ccc(Cl)cc2)c(F)cc1-n1c(=O)ccc2cc(S(=O)(=O)Nc3ccnc(C)n3)ccc21 [Example 751, 1-(4′-chloro-2-fluoro-5-methoxy-4-biphenylyl)-N-(2-methyl-4-pyrimidinyl)-2-oxo-1,2-dihydro-6-quinolinesulfonamide]
192	COc1cc(-c2cccc(C)c2)ccc1-n1c(=O)ccc2cc(S(=O)(=O)Nc3ccnc(C)n3)ccc21 [Example 1132, 1-(3-methoxy-3′-methyl-4-biphenylyl)-N-(2-methyl-4-pyrimidinyl)-2-oxo-1,2-dihydro-6-quinolinesulfonamide]
27	CCOc1cccc(-c2cc(OC)c(-n3c(=O)ccc4cc(S(=O)(=O)Nc5ncccn5)ccc43)cc2C)c1 [Example 963, 1-(3′-ethoxy-5-methoxy-2-methyl-4-biphenylyl)-2-oxo-N-2-pyrimidinyl-1,2-dihydro-6-quinolinesulfonamide]
36	COc1cc(-c2ccc(C)c(F)c2)c(F)cc1-n1c(=O)ccc2cc(S(=O)(=O)Nc3cccnn3)ccc21 [Example 1128, 1-(2,3′-difluoro-5-methoxy-4′-methyl-4-biphenylyl)-2-oxo-N-3-pyridazinyl-1,2-dihydro-6-quinolinesulfonamide]
100	COc1cc(-c2ccc(F)c(F)c2)ccc1-n1c(=O)ccc2cc(S(=O)(=O)Nc3ncccn3)ccc21 [Example 897, 1-(3′,4′-difluoro-3-methoxy-4-biphenylyl)-2-oxo-N-2-pyrimidinyl-1,2-dihydro-6-quinolinesulfonamide]
50	COc1cc(-c2cccc(C(F)(F)F)c2)ccc1-n1c(=O)ccc2cc(S(=O)(=O)Nc3ncco3)ccc21 [Example 916, 1-(3-methoxy-3′-(trifluoromethyl)-4-biphenylyl)-N-1,3-oxazol-2-yl-2-oxo-1,2-dihydro-6-quinolinesulfonamide]
6	COc1cc(-c2cc(F)cc(C(F)(F)F)c2)ccc1-n1c(=O)ccc2cc(S(=O)(=O)Nc3cccnn3)ccc21 [Example 1095, 1-(3′-fluoro-3-methoxy-5′-(trifluoromethyl)-4-biphenylyl)-2-oxo-N-3-pyridazinyl-1,2-dihydro-6-quinolinesulfonamide]
210	COc1cc(-c2cc(OC)c(-n3c(=O)ccc4cc(S(=O)(=O)Nc5ccnc(C)n5)ccc43)cc2F)ccc1F [Example 1008, 1-(2,4′-difluoro-3′,5-dimethoxy-4-biphenylyl)-N-(2-methyl-4-pyrimidinyl)-2-oxo-1,2-dihydro-6-quinolinesulfonamide]
21	COc1ccc(-c2ccc(F)c(C)c2)cc1-n1c(=O)ccc2cc(S(=O)(=O)Nc3ccon3)ccc21 [Example 878, 1-(4′-fluoro-4-methoxy-3′-methyl-3-biphenylyl)-N-3-isoxazolyl-2-oxo-1,2-dihydro-6-quinolinesulfonamide]

same assay, conditions: in-vitro Nav 1.7 PX data (PatchXpress)

IC50 [nM]	Structure (SMILES)
6	COc1cc(-c2cc(Cl)ccc2C)ccc1-n1c(=O)ccc2cc(S(=O)(=O)Nc3ncco3)ccc21 [Example 1067, 1-(5′-chloro-3-methoxy-2′-methyl-4-biphenylyl)-N-1,3-oxazol-2-yl-2-oxo-1,2-dihydro-6-quinolinesulfonamide]
